Measurements published in patent publication US20080096894A1, “Anti-Bacterial Compounds” (ASTON UNIVERSITY, priority 2005, published 2008).
Values after ≈ are worked out from the molar mass of the structure shown. Like-named read-outs stand apart in the source and are kept apart here.

Experiments:
[1] = test system: S. epidemisis; assay: MIC, agar dilution, multipoint inoculator; format: cell-based, Staphylococcus epidermidis; conditions: Staphylococcus epidermidis, upper value of MIC reading, read-out: MIC
How it was run: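 Agar dilution on Mueller Hinton agar; a multipoint inoculator delivered 10^4 colony forming units per spot, and the MIC was taken for each compound.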

[2] = test system: C. difficile (NCTC 11204 and thirty-two clinical isolates); assay: Minimum Inhibitory Concentration (MIC) against C. difficile, microtiter plate, anaerobic, 48 hours; format: cell-based, Clostridium difficile; conditions: Clostridioides difficile, read-out: MIC
Experimental: (§1) Compounds 4PYcq and 4PYOfi were screened against one NCTC strain and thirty-two clinical isolates of Clostridium difficile as described below.
(§2) The antimicrobial compounds were prepared by adding 5.12 mg of each compound to 1 ml of DMSO. From each solution 100 μl was then aseptically transferred into 1 ml of sterile distilled water to give a concentration of 512 μg/ml. 100 μl of each diluted compound was then added to the first well of a sterile 96-well microliter plate. Serial dilutions were performed to give a concentration range spanning from 0 to 512 μg/ml of each compound. The microtiter plate containing the antimicrobials was left to equilibrate in an anaerobic cabinet for 3 hours before the addition of C. difficile cells. An overnight culture of C. difficile (NCTC 11204) was standardized to an OD^600 of 0.04 (approximately 10^6 CFU/ml), using Wilkins Chalgren broth and was vortexed for 60 seconds to ensure there was a uniform suspension. 100 μl of standardized culture was then added to each well of the microtiter plate, containing the equilibrated antimicrobials. The final concentrations of the antimicrobials in the wells therefore ranged from […] and the concentration of the culture was 10^5 CFU/ml in each well. The microtiter plate was incubated at 37° C., for 48 hours under anaerobic conditions. The MIC was determined as the lowest concentration of antimicrobial agent inhibiting the total growth of C. difficile cells. After incubation, the total solution from each well was aseptically spread onto a separate Wilkins chalgren agar plate. Plates were incubated for 48 hours, at 37° C., under anaerobic conditions. The number of colonies on each plate was counted after incubation and the MBC was determined as the lowest concentration of the antimicrobial agent at which 99.9% of organisms in the original inoculum were killed.

[3] = test system: C. difficile (NCTC 11204 and thirty-two clinical isolates); assay: Minimum Bactericidal Concentration (MBC) against C. difficile, 99.9% kill; format: cell-based, Clostridium difficile; conditions: Clostridioides difficile, read-out: MBC
Experimental: as §1, §2

[4] = test system: Propionibacterium acnes; assay: MIC against Propionibacterium acnes, microtitre double dilution in BHI; format: cell-based; conditions: Cutibacterium acnes, read-out: MIC
Experimental: Compounds 4PYcq and 4PYOfi were screened against one NCTC stain and seven clinical isolates of Propionibacterium acnes as described below.
Bacterial strains of Propionibacterium acnes, stored on beads at −20° C., were plated onto Brain heart infusion (BHI) agar plates. The cultures were incubated anaerobically for 4 days at 37° C.
Bacterial suspensions were prepared by diluting bacterial suspensions with BHI to obtain bacterial concentrations approximately 2×10^6 cfu/ml.
The test antimicrobial compounds were prepared by diluting the compound with appropriate nutrient broth to obtain correct stock solution. 50 μl of BHI were aliquoted onto the wells of the round-bottomed microtitre plate. 50 μl of the antimicrobial compounds were added onto the wells in the first column of the plate and several serial double dilutions were performed along the wells on each row. Following the series of double dilutions of the test compound the bacterial suspension were added onto each well except on the last column which served as a negative control. The lowest concentration of the test compound which inhibited bacterial growth was regarded as MIC of the compound.

[5] = test system: Acinetobater spp.; assay: activity against Acinetobacter spp.; format: cell-based; conditions: Gram-negative bacterium
[6] = Clostridium difficile Isolate 1
[7] = Clostridium difficile Isolate 2
[8] = Clostridium difficile Isolate 3
[9] = Clostridium difficile Isolate 4
[10] = Clostridium difficile Isolate 5
[11] = Clostridium difficile Isolate 6
[12] = Clostridium difficile Isolate 7
[13] = Clostridium difficile Isolate 8
[14] = Clostridium difficile Isolate 9
[15] = Clostridium difficile Isolate 10
[16] = Clostridium difficile Isolate 11
[17] = Clostridium difficile Isolate 12
[18] = Clostridium difficile Isolate 13
[19] = Clostridium difficile Isolate 14
[20] = Clostridium difficile Isolate 15
[21] = Clostridium difficile Isolate 16
[22] = Clostridium difficile Isolate 17
[23] = Clostridium difficile Isolate 18
[24] = Clostridium difficile Isolate 19
[25] = Clostridium difficile Isolate 20
[26] = Clostridium difficile Isolate 21
[27] = Clostridium difficile Isolate 22
[28] = Clostridium difficile Isolate 23
[29] = Clostridium difficile Isolate 24
[30] = Clostridium difficile Isolate 25
[31] = Clostridium difficile Isolate 26
[32] = Clostridium difficile Isolate 27
[33] = Clostridium difficile Isolate 28
[34] = Clostridium difficile Isolate 29
[35] = Clostridium difficile Isolate 30
[36] = Clostridium difficile Isolate 31
[37] = Clostridium difficile Isolate 32
[38] = Clostridium difficile NCTC 11204

SMILES: CC(C)(C)c1cc(/C=N/N=C(\N)c2ccncc2)c(O)c(C(C)(C)C)c1 [Compound 4PYcq]
- MIC ([1]; 18 h, S. epidemisis Isolate 1): 4 µg/mL (≈ 11.3 µM)
- MIC ([1]; NCTC11047, 18 h, S. epidemisis NCTC 11047): 4 µg/mL (≈ 11.3 µM)
- MIC [2, 6]: 4 to 8 µg/mL (≈ 11.3 to 22.7 µM)
- MIC [2, 7]: 2 to 4 µg/mL (≈ 5.67 to 11.3 µM)
- MIC [2, 8]: 2 to 4 µg/mL (≈ 5.67 to 11.3 µM)
- MIC [2, 9]: 2 to 4 µg/mL (≈ 5.67 to 11.3 µM)
- MIC [2, 10]: 2 to 4 µg/mL (≈ 5.67 to 11.3 µM)
- MIC [2, 11]: 2 to 4 µg/mL (≈ 5.67 to 11.3 µM)
- MIC [2, 12]: 4 to 8 µg/mL (≈ 11.3 to 22.7 µM)
- MIC [2, 13]: 4 to 8 µg/mL (≈ 11.3 to 22.7 µM)
- MIC [2, 14]: 4 to 8 µg/mL (≈ 11.3 to 22.7 µM)
- MIC [2, 15]: 2 to 4 µg/mL (≈ 5.67 to 11.3 µM)
- MIC [2, 16]: 2 to 4 µg/mL (≈ 5.67 to 11.3 µM)
- MIC [2, 17]: 4 to 8 µg/mL (≈ 11.3 to 22.7 µM)
- MIC [2, 18]: 4 to 8 µg/mL (≈ 11.3 to 22.7 µM)
- MIC [2, 19]: 4 to 8 µg/mL (≈ 11.3 to 22.7 µM)
- MIC [2, 20]: 4 to 8 µg/mL (≈ 11.3 to 22.7 µM)
- MIC [2, 21]: 4 to 8 µg/mL (≈ 11.3 to 22.7 µM)
- MIC [2, 22]: 2 to 4 µg/mL (≈ 5.67 to 11.3 µM)
- MIC [2, 23]: 2 to 4 µg/mL (≈ 5.67 to 11.3 µM)
- MIC [2, 24]: 4 to 8 µg/mL (≈ 11.3 to 22.7 µM)
- MIC [2, 25]: 2 to 4 µg/mL (≈ 5.67 to 11.3 µM)
- MIC [2, 26]: 4 to 8 µg/mL (≈ 11.3 to 22.7 µM)
- MIC [2, 27]: 2 to 4 µg/mL (≈ 5.67 to 11.3 µM)
- MIC [2, 28]: 2 to 4 µg/mL (≈ 5.67 to 11.3 µM)
- MIC [2, 29]: 4 to 8 µg/mL (≈ 11.3 to 22.7 µM)
- MIC [2, 30]: 4 to 8 µg/mL (≈ 11.3 to 22.7 µM)
- MIC [2, 31]: 4 to 8 µg/mL (≈ 11.3 to 22.7 µM)
- MIC [2, 32]: 4 to 8 µg/mL (≈ 11.3 to 22.7 µM)
- MIC [2, 33]: 4 to 8 µg/mL (≈ 11.3 to 22.7 µM)
- MIC [2, 34]: 4 to 8 µg/mL (≈ 11.3 to 22.7 µM)
- MIC [2, 35]: 2 to 4 µg/mL (≈ 5.67 to 11.3 µM)
- MIC [2, 36]: 4 to 8 µg/mL (≈ 11.3 to 22.7 µM)
- MIC [2, 37]: 4 to 8 µg/mL (≈ 11.3 to 22.7 µM)
- MIC [2, 38]: 4 to 8 µg/mL (≈ 11.3 to 22.7 µM)
- MBC [3, 6]: 4 to 8 µg/mL (≈ 11.3 to 22.7 µM)
- MBC [3, 7]: 4 to 8 µg/mL (≈ 11.3 to 22.7 µM)
- MBC [3, 8]: 2 to 4 µg/mL (≈ 5.67 to 11.3 µM)
- MBC [3, 9]: 2 to 4 µg/mL (≈ 5.67 to 11.3 µM)
- MBC [3, 10]: 2 to 4 µg/mL (≈ 5.67 to 11.3 µM)
- MBC [3, 11]: 2 to 4 µg/mL (≈ 5.67 to 11.3 µM)
- MBC [3, 12]: 4 to 8 µg/mL (≈ 11.3 to 22.7 µM)
- MBC [3, 13]: 4 to 8 µg/mL (≈ 11.3 to 22.7 µM)
- MBC [3, 14]: 4 to 8 µg/mL (≈ 11.3 to 22.7 µM)
- MBC [3, 15]: 4 to 8 µg/mL (≈ 11.3 to 22.7 µM)
- MBC [3, 16]: 2 to 4 µg/mL (≈ 5.67 to 11.3 µM)
- MBC [3, 17]: 4 to 8 µg/mL (≈ 11.3 to 22.7 µM)
- MBC [3, 18]: 4 to 8 µg/mL (≈ 11.3 to 22.7 µM)
- MBC [3, 19]: 4 to 8 µg/mL (≈ 11.3 to 22.7 µM)
- MBC [3, 20]: 4 to 8 µg/mL (≈ 11.3 to 22.7 µM)
- MBC [3, 21]: 4 to 8 µg/mL (≈ 11.3 to 22.7 µM)
- MBC [3, 22]: 4 to 8 µg/mL (≈ 11.3 to 22.7 µM)
- MBC [3, 23]: 2 to 4 µg/mL (≈ 5.67 to 11.3 µM)
- MBC [3, 24]: 4 to 8 µg/mL (≈ 11.3 to 22.7 µM)
- MBC [3, 25]: 2 to 4 µg/mL (≈ 5.67 to 11.3 µM)
- MBC [3, 26]: 4 to 8 µg/mL (≈ 11.3 to 22.7 µM)
- MBC [3, 27]: 2 to 4 µg/mL (≈ 5.67 to 11.3 µM)
- MBC [3, 28]: 2 to 4 µg/mL (≈ 5.67 to 11.3 µM)
- MBC [3, 29]: 4 to 8 µg/mL (≈ 11.3 to 22.7 µM)
- MBC [3, 30]: 4 to 8 µg/mL (≈ 11.3 to 22.7 µM)
- MBC [3, 31]: 8 to 16 µg/mL (≈ 22.7 to 45.4 µM)
- MBC [3, 32]: 4 to 8 µg/mL (≈ 11.3 to 22.7 µM)
- MBC [3, 33]: 4 to 8 µg/mL (≈ 11.3 to 22.7 µM)
- MBC [3, 34]: 4 to 8 µg/mL (≈ 11.3 to 22.7 µM)
- MBC [3, 35]: 2 to 4 µg/mL (≈ 5.67 to 11.3 µM)
- MBC [3, 36]: 4 to 8 µg/mL (≈ 11.3 to 22.7 µM)
- MBC [3, 37]: 8 to 16 µg/mL (≈ 22.7 to 45.4 µM)
- MBC [3, 38]: 4 to 8 µg/mL (≈ 11.3 to 22.7 µM)
- MIC ([4]; NCTC737, P. acnes NCTC 737): 64 to 128 µg/mL (≈ 182 to 363 µM)
- MIC ([4]; P. acnes Isolate 1): 4 to 8 µg/mL (≈ 11.3 to 22.7 µM)
- MIC ([4]; P. acnes Isolate 2): 32 to 64 µg/mL (≈ 90.8 to 182 µM)
- MIC ([4]; P. acnes Isolate 3): 2 to 4 µg/mL (≈ 5.67 to 11.3 µM)
- MIC ([4]; P. acnes Isolate 4): 128 to 256 µg/mL (≈ 363 to 726 µM)
- MIC ([4]; P. acnes Isolate 5): 64 to 128 µg/mL (≈ 182 to 363 µM)
- MIC ([4]; P. acnes Isolate 6): 64 to 128 µg/mL (≈ 182 to 363 µM)
- MIC ([4]; P. acnes Isolate 7): > 256 µg/mL
- activity against Acinetobater spp. (in words) [5]: inactive
